Test results taken from patent US20070270501A1, “Medicaments for Treating Barrett's Eesophagus” (Medical Research Council, priority 2004, published 2007).
Entries after “also recorded” stand apart in the source; their conditions may differ.

How the values were obtained:
[1] = system: CYP26A1 in squamous cell line (NES); test: RT-PCR of CYP26A1 expression in squamous cells; format: cell-based; conditions: squamous cells / normal squamous epithelium
Description: Expression of CYP26A1 in Barrett's (BAR, Qhtert) and squamous cell line (NES) is examined by RT-PCR. […] The control when nil is added is denoted by N. The LRAT is the enzyme for retinyl ester formation from excessive retinol.

[2] = system: squamous oesophageal biopsies; test: Ex vivo organ culture of squamous oesophageal biopsies with retinoic acid
RAR = conditions: cited from earlier work
[3] = system: Barrett's oesophagus biopsies; test: Ex vivo organ culture of Barrett's oesophagus biopsies with citral; format: cell-based, human
[4] = system: retinoid X receptor (RXR); conditions: cited from earlier work
RARs = conditions: pan-RAR antagonist; read-out: Kd for binding to RARs; cited from earlier work
[5] = retinoic acid transformed tissue compared with native counterpart
[6] = citral transformed tissue compared with native counterpart

With CC1=C(/C=C/C(C)=C/C=C/C(C)=C/C(=O)O)C(C)(C)CCC1 [retinoic acid, all-trans retinoic acid] the “CYP26A1 expression / regulation” value [1] was “not induced”, the “squamous tissue with glandular phenotype (villiform surface and mucosal glands)” value ([2]; after 48 hours retinoic acid in culture, 8/31 explants) was 26% and the “epithelial markers by RT-PCR” value ([2]; full thickness squamous epithelial biopsy (NE)) was “induced the glandular epithelial markers CK 8/18 and 7 with reduction of the squamous epithelial CK13”. The “cytokeratin expression (immunohistochemistry)” value ([2]; retinoic acid induced glandular tissue, 48 hours) was “expresses cytokeratins CK8/18 and CK7 but not CK13”, the BrdU incorporation [2, 5] was “lack of BrdU incorporation” and the Ki-67 staining [2, 5] was “reduced Ki-67 staining”. The p21 expression ([2]; retinoic acid treated squamous tissue) was “enhanced p21 expression” and the “villin (immunohistochemistry)” value ([2]; retinoic acid treated tissue) was “strongly induced”.

With CC1=C(/C=C/C(C)=C/C=C/C(C)=C/CO)C(C)(C)CCC1 [retinol] the “CYP26A1 expression / regulation” value [1] was “not induced”.

For CC1(C)CCC(C)(C)c2cc3c(cc21)CCc1c(-c2ccc(C(=O)O)cc2)nn(Cc2cccnc2)c1-3 [compound 55, 4-[4,5,7,8,9,10-hexahydro-7,7,10,10-tetramethyl-1-(3-pyridylmethyl)anthra[2,1-d]pyrazol-3-yl]benzoic acid], the “effectiveness of RAR antagonism” value (RAR) is given as “most effective”.

With CC(C)=CCCC(C)=CC=O [citral, 3,7-dimethyl-2,6-octadienal] the “CYP26A1 expression / regulation” value [1] was “depression of CYP26A1 activity; also recorded: down-regulated”, the “Barrett's explants with squamous phenotype” value ([3]; after 48 h citral in culture, 5/10 explants) was 50% and the BrdU incorporation [3, 6] was “lack of BrdU incorporation”. For the same compound, the Ki-67 staining [3, 6] was “reduced Ki-67 staining” and the “cytokeratin expression (immunohistochemistry)” value ([3]; citral treated Barrett's explants, 48 h) was “expression of CK13 and CK14, but not CK8/18”.

For CCCN1c2ccccc2N=C(c2ccc(C(=O)O)cc2)c2cc3c(cc21)C(C)(C)CCC3(C)C [HX603], the RXR antagonistic activity [4] is listed as “selective antagonistic activity”.

For CC1(C)CCC(C)(C)c2cc3c(cc21)CCc1c(-c2ccc(C(=O)O)cc2)cn(Cc2cccnc2)c1-3 [compound 31, 4-[4,5,7,8,9,10-hexahydro-7,7,10,-10-tetramethyl-1-(3-pyridylmethyl)anthra[1,2-b]pyrrol-3-yl]benzoic acid], the “effectiveness of RAR antagonism” value (RAR) is given as “most effective”.

In the case of CCc1ccc(C2=CC(C)(C)Sc3ccc(C#Cc4ccc(C(=O)O)cc4)cc32)cc1 [AGN194310], the Kd (RARs) is listed as 2.5 nM.

In the case of CC1(C)CCC(C)(C)c2cc3c(cc21)SCc1c(-c2ccc(C(=O)O)cc2)cn(Cc2cccnc2)c1-3 [compound 40, 4-[4,5,7,8,9,10-hexahydro-7,7,10,10-tetramethyl-1-(3-pyridylmethyl)-5-thiaanthral[1,2-b]pyrrol-3-yl]benzoic acid], the “effectiveness of RAR antagonism” value (RAR) is listed as “most effective”.
